The conditions of data set [1]: 298.15 K; 101.33 kPa; Liquid; Vibrating tube method.
A short description of data set [2]: refractive index (Na D-line) (dimensionless). The settings on record: 298.15 K; 101.33 kPa; Liquid; Standard Abbe refractometry.
Data set [3] is described as follows: wn = mass fraction of the nth substance listed. The settings on record: 298.15 K, 101 kPa, Liquid, Vibrating tube method.

± gives the expanded uncertainty stated by the source.

Regarding `CCCC[N+]1(C)CCCC1.O=S(=O)([N-]S(=O)(=O)C(F)(F)F)C(F)(F)F`, the mass density (usually mass per unit of volume) in data set [1] was found to be 1394.66 ± 0.58 kg/m3. In addition, the refractive index (in general, a measure of how strongly the sample bends light) in data set [2] came out at 1.42302 ± 0.00042.
Turning to `CCCCCCC` [heptane] + C1CCCCC1, the mass density in data set [3] (w1 = 1) was 679.57 ± 0.18 kg/m3.
For the compound `C1CCCCC1` [cyclohexane] + CCCCCCC, the mass density in data set [3] (w2 = 0) came out at 773.88 ± 0.13 kg/m3; in data set [3] (w2 = 0.0503), 766.95 ± 0.14 kg/m3; in data set [3] (w2 = 0.0991), 760.53 ± 0.14 kg/m3; in data set [3] (w2 = 0.2021) it was 748.16 ± 0.14 kg/m3; in data set [3] (w2 = 0.3118) it was 735.69 ± 0.15 kg/m3; in data set [3] (w2 = 0.3926) it was 726.61 ± 0.15 kg/m3. Moreover, the mass density is 717.21 ± 0.16 kg/m3 in data set [3] (w2 = 0.5039); 703.79 ± 0.16 kg/m3 in data set [3] (w2 = 0.666); 700.61 ± 0.17 kg/m3 in data set [3] (w2 = 0.7062); 692.71 ± 0.17 kg/m3 in data set [3] (w2 = 0.8061); 685.62 ± 0.18 kg/m3 in data set [3] (w2 = 0.9061); 682.6 ± 0.18 kg/m3 in data set [3] (w2 = 0.9539).
For the compound `CCCC[N+]1(C)CCCC1.O=S(=O)([O-])C(F)(F)F` [1-butyl-1-methylpyrrolidinium trifluoromethanesulfonate], the mass density in data set [1] was 1252.71 ± 0.45 kg/m3. In addition, the refractive index in data set [2] is on record as 1.43287 ± 0.00042.
